Experiments:
5-lipoxygenase [1] = target: T1, 5-lipoxygenase (Rattus norvegicus, UniProt P12527); test: Inhibition of cell-free 5-lipoxygenase from RBL-1-cells; type: biochemical; details: 10,000×g supernatant of RBL cells; polarographic; arachidonic acid 75 μM
T1 construct: endogenous in cells; host or cells: RBL-1 cells (rat basophilic leukemia), intact
T1 sequence (P12527 1-673): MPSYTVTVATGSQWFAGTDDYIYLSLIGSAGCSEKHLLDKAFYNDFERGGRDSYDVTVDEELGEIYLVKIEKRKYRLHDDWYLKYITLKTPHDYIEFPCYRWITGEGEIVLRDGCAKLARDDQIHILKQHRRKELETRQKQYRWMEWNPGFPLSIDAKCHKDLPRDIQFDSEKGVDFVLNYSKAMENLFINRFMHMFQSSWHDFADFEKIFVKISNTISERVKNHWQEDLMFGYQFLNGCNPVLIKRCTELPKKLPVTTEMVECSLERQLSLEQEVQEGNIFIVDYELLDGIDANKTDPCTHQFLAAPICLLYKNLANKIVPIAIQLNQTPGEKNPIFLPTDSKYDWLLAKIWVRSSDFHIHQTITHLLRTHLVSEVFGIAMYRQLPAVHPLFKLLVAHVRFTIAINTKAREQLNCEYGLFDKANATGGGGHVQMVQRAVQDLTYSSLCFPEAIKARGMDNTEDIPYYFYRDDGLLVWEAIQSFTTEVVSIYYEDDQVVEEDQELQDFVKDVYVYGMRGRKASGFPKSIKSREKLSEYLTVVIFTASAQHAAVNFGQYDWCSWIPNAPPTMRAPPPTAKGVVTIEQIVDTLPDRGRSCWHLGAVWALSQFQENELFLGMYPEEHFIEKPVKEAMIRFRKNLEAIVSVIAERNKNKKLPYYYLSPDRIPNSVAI
Description: Cell-free 5-lipoxygenase was polarographically measured from 10,000×gsupernatant of homogenized rat basophilic leucemia cells [M. Haurand and L. Flohe in Biol. Chem. Hoppe-Seyler 369, 133-142 (1988)]. After preincubation of the 10,000×g supernatant with arachidonic acid (75 μM), ATP (adenosine triphosphate; 4 μM), reduced glutathione (4 mM), and either a compound according to the invention (0.1 to 100 μM) or a solvent (ethanol and/or dimethyl sulfoxide) at 35° C. for 5 minutes, the lipoxygenase reaction was initiated by addition of calcium chloride (3 mM) and recorded simultaneously.
The activity of 5-lipoxygenase was determined from the difference of the pO2 -decrease before and after addition of calcium chloride. The evaluation included the initial rate of the reaction after the lag-phase as well as the duration of the lag-phase. In a concentration range of from 5 to 10 μM the test substances induced lag-phases of 15 seconds.

5-lipoxygenase [2] = test: 5-lipoxygenase inhibition in rat blood after oral administration (ex vivo iLTB4-formation); details: male Wistar rats, 21.5 mg/kg oral, one hour after administration, A 23 187 15 μg/ml
Description: The bioavailability of the compounds of formula I as 5-lipoxygenase inhibitors was characterized by means of an ex vivo biochemical assessment method described by Tateson et al. in Brit. J. Pharmacol. 94, 528 (1988). A compound of formula I was orally administered to male rats (Wistar strain) in a dose of 21.5 mg/kg. One hour after administration the rats after lethal CO2 -narcosis were bled by heart puncture with added heparin as an anticoagulant. Aliquots of the whole blood were incubated at 37° C. for 30 minutes in a water bath with calcium ionophore A 23 187 at an end concentration of 15 μg/ml. At the end of the incubation the samples were centrifuged, and the concentration of immunoreactive LTB4 (iLTB4) in aliquots of […] percent inhibition of ex vivo iLTB4 -formation in whole blood of rats treated with a compound according to the invention, rats orally treated with an appropriate vehicle solution were included in all experiments, and aliquots of their blood were run in parallel and were processed in the same way as described. The average iLTB4 -content of the plasma of the vehicle treated rats served as the 100% value. The activity in percent of the ex vivo iLTB4 -formation after oral administration of a compound according to the invention was calculated by dividing the average value of the iLTB4 -content in ng iLTB4 /ml of the group treated with a compound according to the invention by the average value of the iLTB4 -contents in ng iLTB4 /ml of the vehicle treated group and subsequent multiplication by the factor 100. The respective inhibition in percent was calculated by subtracting the activity in percent from 100.

5-lipoxygenase [3] = target: T1, 5-lipoxygenase; test: Inhibition of 5-lipoxygenase in RBL-1-cells; type: cell-based; details: 20 μM [14C]-arachidonic acid, 20 μM A 23 187
Description: To determine the inhibition of 5-lipoxygenase rat basophilic leukemia cells (RBL-1-cells) were cultured in vitro, harvested by centrifugation, washed with 50 mM potassium phosphate buffer of pH 7.4, and then suspended in this buffer at 1×10^7 cells/mi. To 1 ml each of this suspension there was added indomethacin (10 μM) and calcium chloride (2 mM), and then the mixture was incubated in the absence or presence of a compound according to the invention in a concentration range of from 0.1 μM to 100 μM for 3 minutes and thereafter with 20 μM of [^14 C]-arachidonic acid and 20 μM of the calcium ionophore A 23 187 for 10 minutes. The reaction was stopped by adding 20 μl of glacial acetic acid, and then the mixture was extracted with ethyl acetate to isolate the metabolites of arachidonic acid formed by the enzymatic action of 5-lipoxygenase. These were separated by thin layer chromatography using a solvent mixture known to be suitable for lipoxygenase products [c.f. Jakschik et al., Biochem. Biophys. Res. Commun. 102, 624 (1981)].
The distribution of the radioactivity among the various metabolites of arachidonic acid was measured using a TLC Linear Analyzer. By correlating the percentages of the amount of the products formed under the action of 5lipoxygenase (5-HETE, isomers of LTB4) in the absence as well as in the presence of different concentrations of compounds according to the invention, the IC50 -values, i.e. the concentrations which cause 50% inhibition of 5-lipoxygenase were determined graphically from semilogarithmic diagrams.

thromboxane synthase = target: T2, thromboxane synthase (Homo sapiens, UniProt P24557); test: Inhibition of thromboxane synthase (human thrombocytes); type: cell-based; details: for IC50: human thrombocytes, arachidonic acid 3.5 μM, read-out: IC50-Value, inhibition of thromboxane synthase (TXB2 formation); for inhibitory action on thromboxane synthase: in words
T2 construct: human thrombocytes were isolated from platelet-rich plasma; endogenous in cells; host or cells: human thrombocytes (platelets), intact
T2 sequence (P24557 1-533): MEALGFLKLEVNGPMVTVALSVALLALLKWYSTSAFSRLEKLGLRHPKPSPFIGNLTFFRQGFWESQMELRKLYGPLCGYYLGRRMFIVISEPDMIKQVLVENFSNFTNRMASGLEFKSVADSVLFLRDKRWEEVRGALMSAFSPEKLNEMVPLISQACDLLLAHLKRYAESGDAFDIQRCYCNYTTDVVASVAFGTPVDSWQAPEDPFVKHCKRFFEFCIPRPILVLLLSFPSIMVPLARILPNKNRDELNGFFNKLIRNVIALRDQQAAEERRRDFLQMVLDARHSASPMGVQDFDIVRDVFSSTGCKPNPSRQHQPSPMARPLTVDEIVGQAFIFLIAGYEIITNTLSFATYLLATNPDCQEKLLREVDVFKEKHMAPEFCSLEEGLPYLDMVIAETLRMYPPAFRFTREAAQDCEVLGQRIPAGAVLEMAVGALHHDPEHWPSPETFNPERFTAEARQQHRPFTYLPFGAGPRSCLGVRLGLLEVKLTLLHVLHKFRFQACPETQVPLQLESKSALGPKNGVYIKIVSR
Description: After addition of prostacyclin, human thrombocytes were isolated from platelet-rich plasma and suspended in Tyrode-Hepes buffer of pH 7.4 at 2×10^8 cells/ml. One ml aliquots of cells were incubated either with a compound according to the invention (0.1 to 100 μM) or a solvent (ethanol and/or dimethyl sulfoxide) at 37° C. for 3 minutes and thereafter with radioactively labelled arachidonic acid (3.5 μM) for 5 minutes. The reaction was stopped and the metabolites of arachidonic acid were extracted by adding methanol, chloroform and formic acid. After evaporation of the chloroform-containing layer to dryness under nitrogen, the residue obtained was resuspended in 50 μl chloroform and analyzed by thin layer chromatography. The distribution of the radioactivity of the different metabolites of arachidonic acid was measured using a TLC linear analyzer.

guinea pigs = test: Allergen-induced bronchoconstriction in guinea pigs (Konzett-Roessler); type: in vivo, guinea pig; details: 60 minutes before ovalbumin
Description: The antiasthmatic effect of compounds according to the invention was tested in anesthetized and ventilated guinea pigs. To induce an asthmatic reaction, the animals were passively sensitized by a single intraperitoneal injection of anti-ovalbumin serum. After 48 hours an asthmatic reaction was elicited by intravenous challenge with 0.2 mg/kg of ovalbumin. The immediately resulting bronchoconstriction was measured as an increase in intratracheal pressure. Effects caused by histamine, serotonin and sympathic counterreaction were eliminated by intravenous pretreatment with 2.15 mg/kg of mepyramine, 46.4 μg/kg of propranolol, 4.64 mg/kg of atropine, and 1 mg/kg of methysergide, all administered 5 minutes before challenge. Compounds according to the invention were orally administered 60 minutes before the administration of ovalbumin. The following ED40-values for the inhibition of the bronchoconstriction elicited by ovalbumin, i.e. the effective doses causing a 40% average inhibition of the bronchoconstriction, were determined: […]

5-lipoxygenase [4] = details: in words, no test shown; cited from earlier work

IC50 (5-lipoxygenase [3]) | IC50 (thromboxane synthase) | SMILES | Inhibition of ex vivo iLTB4-formation in whole blood (5-lipoxygenase [2]) | inhibitory action on thromboxane synthase (thromboxane synthase) | other results
> 100 µM | 4 µM | NC(=O)N(O)Cc1ccc(OCCn2ccnc2)cc1 [Comparison, N-hydroxy-N-[4-[2-(1H-imidazol-1-yl)ethoxy]phenylmethyl]urea, reference compound] | 42% | – | IC50 (5-lipoxygenase [1]): > 100 µM
5 µM | – | NC(=O)N(O)Cc1ccc(Oc2ccc(-n3ccnc3)cc2)cc1 [Example 2, Imidazolium Chloride of N-hydroxy-N-[4-[4-(1H-imidazol-1-yl)phenoxy]phenylmethyl]urea] | – | – | Inhibition of ex vivo iLTB4-formation in whole blood (5-lipoxygenase [2]; 21.5 mg/kg): 95%; ED50-Value, inhibition of the bronchoconstriction elicited by ovalbumin (guinea pigs; oral, ED40): 5.1 mg/kg
3 µM | – | NC(=O)N(O)Cc1ccc(Oc2ccc(-n3ccnc3)cc2)s1 [Example 4, N-hydroxy-N-[5-[4-(1H-imidazol-1-yl)phenoxy]thien-2-yl-methyl]urea] | 93% | – | ED40 (guinea pigs; Cavia porcellus, po, 1 h, read-out: ED40-Value, inhibition of the bronchoconstriction elicited by ovalbumin): 6.3 mg/kg
6 µM | 2.5 µM | NC(=O)N(O)Cc1cccc(Oc2ccc(-n3ccnc3)cc2)c1 [Example 5, N-hydroxy-N-[3-[4-(1H-imidazol-1-yl)phenoxy]phenylmethyl]urea] | – | same inhibitory potency as the hydrochloride of the imidazolylethoxybenzoic acid UK 37 248 | IC50 (5-lipoxygenase [1]): 2 µM
– | – | NC(=O)N(O)Cc1ccc(Oc2ccc(-n3ccnc3)cc2)o1 [Example 6, N-hydroxy-N-[5-[4-(1H-imidazol-1-yl)phenoxy]furan-2-yl-methyl]urea] | 84% | – | –
2 µM | – | NC(=O)N(O)Cc1ccc(Oc2cccc(-n3ccnc3)c2)cc1 [Example 10, N-hydroxy-N-[4-[3-(1H-imidazol-1-yl)phenoxy]phenylmethyl]urea] | – | – | –
– | – | Cl.O=C(O)c1ccc(OCCn2ccnc2)cc1 [UK 37 248, 4-[2-(1H-imidazol-1-yl)-ethoxy]benzoic acid hydrochloride, reference compound] | – | inhibits the activity of thromboxane synthase | inhibits the activity of 5-lipoxygenase (5-lipoxygenase [4]): not the activity of 5-lipoxygenase
– | > 100 µM | CC(c1cc2ccccc2s1)N(O)C(N)=O (centres unmarked) [Zileuton (A 64 077), reference compound] | – | did not exert an inhibitory action on thromboxane synthase | –
